Where two headings read alike, the source gives them in different places.
How the values were obtained:
Format in all cases: cell-based
PANC-1 = assay: SRB colorimetric cell growth inhibition assay, PANC-1; conditions: for GI50: GI=growth inhibition, read-out: GI50 PANC-1; for CC50: cell killing (cytotoxic effect), read-out: LC50 PANC-1
Summary of the method: (§1)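 Growth inhibition (GI), cytostatic total growth inhibition (TGI) and cytotoxic cell-kill (LC) parameters were calculated from SRB-stained cultures held under constant compound exposure, triplicates averaged.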

HeLa = assay: SRB colorimetric cell growth inhibition assay, HeLa; conditions: for GI50: GI=growth inhibition, read-out: GI50 HELA; for CC50: cell killing (cytotoxic effect), read-out: LC50 HELA
Summary of the method: as §1

DU-145 = assay: SRB colorimetric cell growth inhibition assay, DU-145; conditions: for CC50: cell killing (cytotoxic effect), read-out: LC50 DU-145; for GI50: GI=growth inhibition, read-out: GI50 DU-145; for IC (TGI): total growth inhibition (cytostatic effect), read-out: TGI DU-145
Summary of the method: as §1

K-562 = assay: SRB colorimetric cell growth inhibition assay, K-562; conditions: for GI50: GI=growth inhibition, read-out: GI50 K-562; for CC50: cell killing (cytotoxic effect), read-out: LC50 K-562
Summary of the method: as §1

IGROV-ET = assay: SRB colorimetric cell growth inhibition assay, IGROV-ET (ET-743 resistant); conditions: IGROV-ET; for GI50: GI=growth inhibition, read-out: GI50 IGROV-ET; for CC50: cell killing (cytotoxic effect), read-out: LC50 IGROV-ET
Summary of the method: as §1

HT-29 = assay: SRB colorimetric cell growth inhibition assay, HT-29; conditions: for GI50: GI=growth inhibition, read-out: GI50 HT-29; for CC50: cell killing (cytotoxic effect), read-out: LC50 HT-29
Summary of the method: as §1

HeLa-APL = assay: SRB colorimetric cell growth inhibition assay, HeLa-APL (aplidine resistant); conditions: HELA-APL; for GI50: GI=growth inhibition, read-out: GI50 HELA-APL; for CC50: cell killing (cytotoxic effect), read-out: LC50 HELA-APL
Summary of the method: as §1

LNCaP = assay: SRB colorimetric cell growth inhibition assay, LNCaP; conditions: LN-caP; for GI50: GI=growth inhibition, read-out: GI50 LN-caP; for CC50: cell killing (cytotoxic effect), read-out: LC50 LN-caP
Summary of the method: as §1

LoVo-Dox = assay: SRB colorimetric cell growth inhibition assay, LoVo-Dox (MDR); conditions: LOVO-DOX; for GI50: GI=growth inhibition, read-out: GI50 LOVO-DOX; for CC50: cell killing (cytotoxic effect), read-out: LC50 LOVO-DOX
Summary of the method: as §1

LoVo = assay: SRB colorimetric cell growth inhibition assay, LoVo; conditions: for GI50: GI=growth inhibition, read-out: GI50 LOVO; for CC50: cell killing (cytotoxic effect), read-out: LC50 LOVO
Summary of the method: as §1

A-549 = assay: SRB colorimetric cell growth inhibition assay, A-549; conditions: for GI50: GI=growth inhibition, read-out: GI50 A-549; for CC50: cell killing (cytotoxic effect), read-out: LC50 A-549
Summary of the method: as §1

IGROV = assay: SRB colorimetric cell growth inhibition assay, IGROV; conditions: IGROV; for GI50: GI=growth inhibition, read-out: GI50 IGROV; for CC50: cell killing (cytotoxic effect), read-out: LC50 IGROV
Summary of the method: as §1

SK-BR-3 = assay: SRB colorimetric cell growth inhibition assay, SK-BR-3; conditions: for GI50: GI=growth inhibition, read-out: GI50 SK-BR-3; for CC50: cell killing (cytotoxic effect), read-out: LC50 SK-BR-3
Summary of the method: as §1

SK-MEL-28 = assay: SRB colorimetric cell growth inhibition assay, SK-MEL-28; conditions: for GI50: GI=growth inhibition, read-out: GI50 MEL-28; for CC50: cell killing (cytotoxic effect), read-out: LC50 MEL-28
Summary of the method: as §1

[1] = total growth inhibition (cytostatic effect)
[2] = Homo sapiens, SK-MEL-28, MEL-28

COc1cc(-c2c3c4cc(OC)c(OC(=O)[C@H](C)N)cc4oc(=O)c3n3ccc4c(OC(=O)[C@H](C)N)c(OC)c(OC)cc4c23)ccc1OC(=O)[C@H](C)N [Compound 191]
GI50 (PANC-1; PANC-1): 1270 nM | CC50 (PANC-1; PANC-1): 11700 nM | TGI PANC-1 (PANC-1; PANC-1, total growth inhibition (cytostatic effect)): 9.66E−06 Molar | GI50 (HeLa; HELA): 948 nM | CC50 (HeLa; HELA): 8630 nM | TGI HELA (HeLa; HELA, total growth inhibition (cytostatic effect)): 2.96E−06 Molar | CC50 (DU-145; DU-145): 11700 nM | GI50 (DU-145; Homo sapiens, DU-145, DU-145): 62.1 nM | IC (TGI) (DU-145; Homo sapiens, DU-145, DU-145): 228 nM | GI50 (K-562; K-562): 129 nM | CC50 (K-562; K-562): 9490 nM | TGI K-562 (K-562; K-562, total growth inhibition (cytostatic effect)): 1.69E−06 Molar | GI50 (IGROV-ET): 588 nM | CC50 (IGROV-ET): 11700 nM | TGI IGROV-ET (IGROV-ET; [1]): 6.96E−06 Molar | GI50 (HT-29; HT-29): 6180 nM | CC50 (HT-29; HT-29): 11700 nM | TGI HT-29 (HT-29; HT-29, total growth inhibition (cytostatic effect)): 1.17E−05 Molar | GI50 (HeLa-APL): 940 nM | CC50 (HeLa-APL): 5960 nM | TGI HELA-APL (HeLa-APL; [1]): 2.52E−06 Molar | GI50 (LNCaP; Homo sapiens, LNCaP): 244 nM | CC50 (LNCaP): 5360 nM | TGI LN-caP (LNCaP; [1]): 1.48E−06 Molar | GI50 (LoVo-Dox): 785 nM | CC50 (LoVo-Dox): 11700 nM | TGI LOVO-DOX (LoVo-Dox; [1]): 1.17E−05 Molar | GI50 (LoVo; LOVO): 513 nM | CC50 (LoVo; LOVO): 7900 nM | TGI LOVO (LoVo; LOVO, total growth inhibition (cytostatic effect)): 1.70E−06 Molar | GI50 (A-549; A-549): 573 nM | CC50 (A-549; A-549): 11700 nM | TGI A-549 (A-549; A-549, total growth inhibition (cytostatic effect)): 1.17E−05 Molar | GI50 (IGROV): 458 nM | CC50 (IGROV): 11700 nM | TGI IGROV (IGROV; [1]): 2.77E−06 Molar | GI50 (SK-BR-3; SK-BR-3): 555 nM | CC50 (SK-BR-3; SK-BR-3): 11700 nM | TGI SK-BR-3 (SK-BR-3; SK-BR-3, total growth inhibition (cytostatic effect)): 3.66E−06 Molar | GI50 (SK-MEL-28; MEL-28): 363 nM | CC50 (SK-MEL-28; MEL-28): 11700 nM | TGI MEL-28 (SK-MEL-28; MEL-28, total growth inhibition (cytostatic effect)): 1.17E−05 Molar

COc1cc(-c2c3c4cc(OC)c(OC(=O)CCCCCN)cc4oc(=O)c3n3ccc4c(OC(=O)CCCCCN)c(OC)c(OC)cc4c23)ccc1OC(=O)CCCCCN [Compound 193]
GI50 (PANC-1; Homo sapiens, PANC-1, PANC-1): 278 nM | CC50 (PANC-1; Homo sapiens, PANC-1, PANC-1): 10200 nM | IC (TGI) (PANC-1; Homo sapiens, PANC-1, PANC-1, total growth inhibition (cytostatic effect), read-out: TGI PANC-1): 3600 nM | GI50 (HeLa; Homo sapiens, HeLa): 350 nM | CC50 (HeLa; Homo sapiens, HeLa): 10200 nM | IC (TGI) (HeLa; Homo sapiens, HeLa, total growth inhibition (cytostatic effect), read-out: TGI HELA): 10200 nM | GI50 (DU-145; Homo sapiens, DU-145, DU-145): 33.3 nM | CC50 (DU-145; Homo sapiens, DU-145, DU-145): 438 nM | IC (TGI) (DU-145; Homo sapiens, DU-145, DU-145): 128 nM | GI50 (K-562; Homo sapiens, K562, K-562): 123 nM | CC50 (K-562; Homo sapiens, K562, K-562): 3910 nM | IC (TGI) (K-562; Homo sapiens, K562, K-562, total growth inhibition (cytostatic effect), read-out: TGI K-562): 399 nM | GI50 (IGROV-ET; Homo sapiens): 136 nM | CC50 (IGROV-ET; Homo sapiens): 9590 nM | IC (TGI) (IGROV-ET; Homo sapiens, total growth inhibition (cytostatic effect), read-out: TGI IGROV-ET): 432 nM | GI50 (HT-29; Homo sapiens, HT-29, HT-29): 10200 nM | CC50 (HT-29; Homo sapiens, HT-29, HT-29): 10200 nM | IC (TGI) (HT-29; Homo sapiens, HT-29, HT-29, total growth inhibition (cytostatic effect), read-out: TGI HT-29): 10200 nM | GI50 (HeLa-APL; Homo sapiens): 797 nM | CC50 (HeLa-APL; Homo sapiens): 10200 nM | IC (TGI) (HeLa-APL; Homo sapiens, total growth inhibition (cytostatic effect), read-out: TGI HELA-APL): 10200 nM | GI50 (LNCaP; Homo sapiens, LNCaP): 118 nM | CC50 (LNCaP; Homo sapiens, LNCaP): 5490 nM | IC (TGI) (LNCaP; Homo sapiens, LNCaP, total growth inhibition (cytostatic effect), read-out: TGI LN-caP): 491 nM | GI50 (LoVo-Dox; Homo sapiens): 313 nM | CC50 (LoVo-Dox; Homo sapiens): 10200 nM | IC (TGI) (LoVo-Dox; Homo sapiens, total growth inhibition (cytostatic effect), read-out: TGI LOVO-DOX): 10200 nM | GI50 (LoVo; Homo sapiens, LoVo): 350 nM | CC50 (LoVo; Homo sapiens, LoVo): 10200 nM | IC (TGI) (LoVo; Homo sapiens, LoVo, total growth inhibition (cytostatic effect), read-out: TGI LOVO): 847 nM | GI50 (A-549; Homo sapiens, A549, A-549): 607 nM | CC50 (A-549; Homo sapiens, A549, A-549): 10200 nM | IC (TGI) (A-549; Homo sapiens, A549, A-549, total growth inhibition (cytostatic effect), read-out: TGI A-549): 10200 nM | GI50 (IGROV; Homo sapiens): 74.1 nM | CC50 (IGROV; Homo sapiens): 3480 nM | IC (TGI) (IGROV; Homo sapiens, total growth inhibition (cytostatic effect), read-out: TGI IGROV): 410 nM | GI50 (SK-BR-3; Homo sapiens, SK-BR-3, SK-BR-3): 227 nM | CC50 (SK-BR-3; Homo sapiens, SK-BR-3, SK-BR-3): 10200 nM | IC (TGI) (SK-BR-3; Homo sapiens, SK-BR-3, SK-BR-3, total growth inhibition (cytostatic effect), read-out: TGI SK-BR-3): 567 nM | GI50 (SK-MEL-28; [2]): 101 nM | CC50 (SK-MEL-28; [2]): 10200 nM | IC (TGI) (SK-MEL-28; Homo sapiens, SK-MEL-28, MEL-28, total growth inhibition (cytostatic effect), read-out: TGI MEL-28): 497 nM
